Counter-ions that a name gives are not always drawn.
Conditions: instrument: DT, single field, calibrated with Agilent tune mix (Agilent)

SMILES	collision cross section (N2) ([M+H]+) [Å²]	collision cross section (N2) ([M-H]-) [Å²]	also measured
C[C@H](CCC(=O)NCC(=O)O)[C@H]1CC[C@H]2[C@@H]3CC[C@@H]4C[C@H](O)CC[C@]4(C)[C@H]3CC[C@]12C [Glycolithocholic acid]	200.9		collision cross section (N2) ([M+Na-2H]-): 205.49 Å²
C[C@H](CCC(=O)O)[C@H]1CC[C@H]2[C@@H]3[C@H](O)C[C@@H]4C[C@H](O)CC[C@]4(C)[C@H]3C[C@H](O)[C@]12C [Cholic acid]		200.72	collision cross section (N2) ([M+Na]+): 197.3 Å²
O=C(O)CNC(=O)c1ccccc1O [Salicyluric acid]		133.01	
O=C(O)c1c[nH]c2ccccc12 [Indole-3-carboxylic acid]	132.4	124.5	
Nc1cccc(C(=O)O)c1O [3-Aminosalicylic acid]		122.07	
CSC[C@H]1O[C@@H](n2cnc3c(N)ncnc32)[C@H](O)[C@@H]1O [S-Methyl-5'-thioadenosine]	162.5		
CC(C)=CCC[C@@H](C)[C@H]1CC[C@@]2(C)C3=C(CC[C@]12C)[C@@]1(C)CC[C@H](O)C(C)(C)[C@@H]1CC3 [Lanosterol]			collision cross section (N2) ([M+H-H2O]+): 207.3 Å²
Cc1cn([C@H]2C[C@H](O)[C@@H](COP(=O)(O)OP(=O)(O)O)O2)c(=O)[nH]c1=O [Deoxythymidine 5'-diphosphate]		172.11	collision cross section (N2) ([M+Na]+): 177.6 Å²
Nc1ncnc2c1ncn2[C@@H]1O[C@H](COP(=O)(O)O)[C@@H](O)[C@H]1O [Adenosine monophosphate (AMP)]	171.4		
CCCCCCCCCCCCC(=O)O [Tridecanoic acid]		155.16	
O=P(O)(O)OCC(O)CO (stereo not drawn) [Glycerol 3-phosphate]		124.86	
CC(C)CC(=O)SCCNC(=O)CCNC(=O)[C@H](O)C(C)(C)COP(=O)(O)OP(=O)(O)OC[C@H]1O[C@@H](n2cnc3c(N)ncnc32)[C@H](O)[C@@H]1OP(=O)(O)O [3-Methylbutanoyl-CoA]		255.72	
CCCCCCCCCCCCCCCC(=O)SCCNC(=O)CCNC(=O)[C@H](O)C(C)(C)COP(=O)(O)OP(=O)(O)OC[C@H]1O[C@@H](n2cnc3c(N)ncnc32)[C@H](O)[C@@H]1OP(=O)(O)O [Palmitoyl CoA]	296.2	296.46	
C[C@H](CCC(=O)NCC(=O)O)[C@H]1CC[C@H]2[C@@H]3[C@H](O)C[C@@H]4C[C@H](O)CC[C@]4(C)[C@H]3C[C@H](O)[C@]12C [Glycocholic acid]		200.58	collision cross section (N2) ([M+Na]+): 202 Å²
O=C(O)c1cccnc1C(=O)O [Quinolinate]			collision cross section (N2) ([M+H-H2O]+): 130.5 Å²
CCCCCCCC(=O)SCCNC(=O)CCNC(=O)[C@H](O)C(C)(C)COP(=O)(O)OP(=O)(O)OC[C@H]1O[C@@H](n2cnc3c(N)ncnc32)[C@H](O)[C@@H]1OP(=O)(O)O [Octanoyl-CoA]		268.72	
CCCCCCCCCCC(=O)O [Undecanoic Acid]		148.87	
COc1cc(CC(=O)O)ccc1O [Homovanillic acid]		134.15	
O=c1nc[nH]c2c1ncn2[C@@H]1O[C@H](COP(=O)(O)OP(=O)(O)OP(=O)(O)O)[C@@H](O)[C@H]1O [Inosine triphosphate]		187.3	
C[C@H](CCC(=O)NCCS(=O)(=O)O)[C@H]1CC[C@H]2[C@@H]3[C@H](O)C[C@@H]4C[C@H](O)CC[C@]4(C)[C@H]3CC[C@]12C [Taurochenodeoxycholate]		205.39	collision cross section (N2) ([M+Na]+): 207.4 Å²
Nc1ncnc2c1ncn2[C@@H]1O[C@@H]2COP(=O)(O)O[C@H]2[C@H]1O [Adenosine 3',5'-cyclic phosphate]	176.8		

SMILES	collision cross section (N2) ([M+H]+) [Å²]	collision cross section (N2) ([M-H]-) [Å²]	also measured
CC(=O)N[C@H]1[C@H](O[C@H]2[C@H](O)[C@@H](NC(C)=O)C(O)O[C@@H]2CO)O[C@H](CO)[C@@H](O)[C@@H]1O (stereo partly drawn) [N,N'-Diacetylchitobiose]	192.9		
CC(C)CCC(=O)O [Isocaproic acid]		127.48	
C[C@]12CCC(=O)C=C1CC[C@@H]1[C@@H]2[C@@H](O)C[C@@]2(C)[C@H]1CC[C@]2(O)C(=O)CO [Hydrocortisone (Cortisol)]	189.1		
C[C@H](NC(=O)CC[C@H](N)C(=O)O)C(=O)O [5-L-Glutamyl-L-alanine]	149.6	140.25	
NC(=NCCCC(N)C(=O)O)NO (stereo not drawn) [N-(omega)-Hydroxyarginine]	139	138.2	
O=C(O)Cc1cnc[nH]1 [Imidazoleacetic acid]	123.1		
CCCCC/C=C\C/C=C\C/C=C\CCCCC(=O)O [(6,9,12)-Linolenic acid]	174.1		
CC(C)C[C@H](N)C(=O)N1CCC[C@H]1C(=O)O [L-leucyl-L-proline]			collision cross section (N2) ([M+H-H2O]+): 149.5 Å²
N[C@@H](Cc1ccc(OP(=O)(O)O)cc1)C(=O)O [O-Phosphotyrosine]	162.2		collision cross section (N2) ([M+Na-2H]-): 149.33 Å²
CC(=O)NCCCCNCCCN [N8-Acetylspermidine]	142.7	146.34	
CC(=O)OP(=O)(O)O [Acetyl phosphate]			collision cross section (N2) ([M+Na]+): 142.7 Å²
O=c1ccn([C@H]2C[C@H](O)[C@@H](CO)O2)c(=O)[nH]1 [2'-Deoxyuridine]		145.91	collision cross section (N2) ([M+Na]+): 156 Å²
O=C(O)CCCCC(=O)O [Adipic acid]			collision cross section (N2) ([M+Na-2H]-): 129.61 Å²
c1ccc2[nH]ccc2c1 [Indole]	121	117.08	
NC(=O)c1ccc[n+]([C@@H]2O[C@H](COP(=O)(O)OP(=O)(O)OC[C@H]3O[C@@H](n4cnc5c(N)ncnc54)[C@H](OP(=O)(O)O)[C@@H]3O)[C@@H](O)[C@H]2O)c1 [Nicotinamide adenine dinucleotide phosphate (NADP)]	230.9		
O=C(O)/C=C/c1ccccc1O [trans-2-Hydroxycinnamic acid]			collision cross section (N2) ([M+H-H2O]+): 124.1 Å²
O=C(O)C(O)c1ccc(O)c(O)c1 (stereo not drawn) [3,4-Dihydroxymandelic acid]		135	collision cross section (N2) ([M+H-H2O]+): 132 Å²
Cc1ncc(COP(=O)(O)O)c(CN)c1O [Pyridoxamine 5'-phosphate]	150.9		
Cc1cc2nc3c(=O)[nH]c(=O)nc-3n(C[C@H](O)[C@H](O)[C@H](O)CO)c2cc1C [Riboflavin (Vitamin B2)]	188.3	184.12	
C[C@]12CC[C@@H]3c4ccc(O[C@@H]5O[C@H](C(=O)O)[C@@H](O)[C@H](O)[C@H]5O)cc4CC[C@H]3[C@@H]1CCC2=O [Estrone-3-glucuronide]		215.74	
O=C(O)CCc1ccc(O)c(O)c1 [3,4-Dihydroxyhydrocinnamic acid]		133.05	

SMILES	collision cross section (N2) ([M+H]+) [Å²]	collision cross section (N2) ([M-H]-) [Å²]	also measured
Cn1c(=O)[nH]c2nc[nH]c2c1=O [1-Methylxanthine]		124.23	
O=S(=O)(O)Oc1c[nH]c2ccccc12 [Indoxyl sulfate]		140.6	
O=P(O)(O)OC[C@H]1O[C@@](O)(COP(=O)(O)O)[C@@H](O)[C@@H]1O [Fructose 1,6-bisphosphate]			collision cross section (N2) ([M+Na]+): 168.2 Å²
O=C([O-])[C@H](O)[C@@H](O)[C@H](O)[C@H](O)CO [D-gluconate]			collision cross section (N2) ([M+Na]+): 145.8 Å²
NCCOP(=O)(O)O [O-Phosphoethanolamine]		121.6	
O=C(O)c1cccc(O)c1O [2,3-Dihydroxybenzoic acid]		118.42	
CC(CCC(=O)O)CC(=O)O (stereo not drawn) [3-Methyladipic acid]		129.01	
CC(C)=CCC/C(C)=C/CC/C(C)=C/COP(=O)(O)OP(=O)(O)O [Farnesyl pyrophosphate]		183.85	
N[C@@H](CSS(=O)(=O)O)C(=O)O [Cysteine-S-sulfate]	144.2		collision cross section (N2) ([M+Na-2H]-): 133.29 Å²
COc1cc(/C=C/C(=O)CC(=O)/C=C/c2ccc(O)c(OC)c2)ccc1O [Curcumin]	201.6		collision cross section (N2) ([M+Na-2H]-): 178.82 Å²
CC1=C(/C=C/C(C)=C/C=C/C(C)=C/CO)C(C)(C)CCC1=O [4-Oxoretinol]			collision cross section (N2) ([M+H-H2O]+): 173.3 Å²
C[C@]12CC[C@@H]3c4ccc(O)cc4CC[C@H]3[C@@H]1CC[C@@H]2O [beta-Estradiol]			collision cross section (N2) ([M+H-H2O]+): 159.7 Å²
CCCCCCCCCCCCCCCCCC(N)=O [Stearamide]	188.3		
CCCCCCCCCCCCCCCCCC(=O)OC[C@@H](O)CO [1-Stearoyl-sn-glycerol]			collision cross section (N2) ([M+H-H2O]+): 199.6 Å²
CNc1ncnc2c1ncn2[C@@H]1O[C@H](CO)[C@@H](O)[C@H]1O [N6-methyladenosine]		159.67	collision cross section (N2) ([M+Na]+): 170.4 Å²
NCCCCC(=O)O [5-Aminopentanoic acid]	121.3	124.49	
CC1=C(/C=C/C(C)=C/C=C/C(C)=C/C=O)C(C)(C)CCC1 [Retinene]	170.1		
O=C(O)CCc1ccccc1 [3-Phenylpropanoic acid]		135.74	
Cn1c(=O)c2[nH]c(=O)[nH]c2n(C)c1=O [1,3-Dimethyluric acid]	142.5	134.24	
O=C(O)CN(CCN(CC(=O)O)CC(=O)O)CC(=O)O [EDTA]	159.6	151.17	

Reference: the C3SDB collision cross section collection
